# Measured values published in article PMC7363885, “Fluorescent artificial receptor-based membrane assay (FARMA) for spatiotemporally resolved monitoring of biomembrane permeability” (Communications Biology, 2020).
# Entries after “also recorded” stand apart in the source; their conditions may differ. Where two headings read alike, the source gives them in different places.
# How the values were obtained:
# [1] = FARMA: permeation of analytes into FAR-loaded liposomes (fluorescence, cuvette or stopped-flow); settings: for membrane permeability (in words): FARMA with FAR-loaded liposomes or GUVs
# Text: Elementary physical parameters, such as permeability coefficients, can be extracted from the full kinetic FARMA data. This kinetic profile → parameter mapping requires some assumptions to be made in regard to the permeation mechanism. We applied a reported permeation model for liposomes[31] to arrive at permeation rate constants (kp) and apparent permeability coefficients (Papp). The derivation of the mathematical relation (1), linking the fundamental permeability rate constant and permeability coefficient to experimental measurable kobs rate constants, the known total analyte and total FAR concentration, and the experimentally determined liposome radius (r), is shown in the Supplementary Information.1 Papp=kp⋅r/3=kobs/canalyte⋅cFAR⋅r/3 […]
# The volume-to-surface correction factor r/3 accounts for the fact that the observed rates depend on the size, i.e., radius r, of the liposomal assembly. […] The initial-rate method can also be applied, see the Supplementary Information. Moreover, kobs/canalyte can be estimated by single-point measurements at selected canalyte concentration.
# A solution of 2.5 mg/mL of POPC and 0.33 mg/mL of POPS in chloroform was purged with nitrogen and dried overnight under […] vacuum. […] The resulting FAR-loaded liposomes were separated from non-encapsulated species by size-exclusion chromatography (NAP-25 column), while maintaining the same buffer. The absence of non-encapsulated FAR was confirmed by adding a non-membrane-permeable species such as tryptophan to a fluorescence cuvette containing 25 µL of liposomes diluted in 1 mL HEPES (10 mM) buffer. Complete removal of non-encapsulated FAR is indicated by the absence of a significant fluorescence change upon Trp addition.
# In a typical experiment, 20 µL of liposome solution loaded with FAR was diluted in 1 mL HEPES buffer (10 mM, pH 7.0) in a 1 mL quartz cuvette. An emission spectrum was recorded after 10 min of “equilibration time” on a Varian Eclipse spectrofluorometer thermostated at 22 °C with a water bath using λexc = 400 nm for FAR-1, λexc = 310 nm for FAR-2, and λexc = 330 nm for FAR-3. In the time-resolved experiments, the emission intensity at λobs = 450 nm for FAR-1, λobs = 370 nm for FAR-2, and λobs = 370 and 500 nm for FAR-3 (the latter is the emerging excimer band for certain FAR-3•analyte complexes) was recorded with an averaging time of 0.5 s. […] For single-point experiments, a full spectrum was recorded after a fixed time or several time intervals after analyte addition. […] Only FAR-analyte combinations were used for FARMA, for which no significant autofluorescence and competitive light absorption of the analyte occurred.
# For each experiment, measurements from 6 injections were accumulated and the average of these traces was used for data analysis.
# Calculation of the unimolecular permeation rate constants ( kp) and of the apparent permeability coefficients (Papp).
# The passive diffusion (permeation) of small non-charged compounds follows a modified Fick’s law and can be expressed by a first order kinetics.1 Similar to first order chemical reactions, the kinetics curve can therefore be fitted monoexponentially to obtained the observed permeation rates (kobs). In our assay set-up, such an exponential fit is an approximation, since it neglects that a certain fraction of transported analyte is bound to the FAR and cannot exit the liposome. Nevertheless, the fit of the kinetic curves of the […]
# approximation is justified.
# [2] = test system: FAR-1; experiment: Fluorescence titration, FAR•analyte complex formation in homogeneous solution; type: binding; settings: FAR-1; 10 mM HEPES buffer (pH 7); 1:1 binding model; error estimate ≤ 20%
# Protocol: Fluorescence titrations were carried out in aqueous HEPES buffer (10 mM, pH 7, 22 °C) unless stated otherwise. To a solution of the FAR (typically at 10–30 μM) was stepwise added a solution of the analyte (typically up to 2 mM) and the fluorescence spectra were recorded. The normalized emissions at 450 nm (FAR-1) or at 370 nm (FAR-2) were fitted with an equation for a 1 : 1 binding by a least-square fit. The resulting affinity constants are reported in Supplementary Table 1. Representative titration plots are shown in Supplementary Fig. 1. Note that the high CB8-dye binding affinities correspond to a near quantitative degree of host-dye complexation, i.e., quantitative formation of the FAR, such that the subsequent binding of the analyte can be treated independently.
# [3] = Dye displacement membrane assay (liposome-encapsulated host•dye ensembles); settings: dye displacement, CB7•BE-, CB8•MV•5OH-Trp- or CB8•MV•2,6-ANS-loaded liposomes
# Text: Supplementary Figure 13 | Graphical representation of membrane assays using dye displacement for signaling. Diffusion of analytes through a lipid membrane is detected by displacement of the dye from (a) a host•dye or (b) a host•dye•quencher complex, leading to reduction or enhancement in emission intensity.
# Supplementary Figure 14 | Membrane permeation monitoring of analytes by dye displacement. (a) Time-resolved changes in fluorescence intensity of CB7•BE-loaded liposomes (λexc = 347 nm, λobs = 500 nm) upon addition of the membrane-permeable analyte tyramine and membrane destabilizing peptide melittin.
# (b) Evolution of fluorescence intensity after addition of dimethylbenzylamine (DMBA) to CB7•PAL-loaded liposomes (λexc = 347 nm, λobs = 500 nm). (c) Fluorescence response after addition of the […]
# tryptophan to liposomes loaded with CB8•MV•2,6-ANS (λexc = 380 nm, λobs = 463 nm). […]
# Combing equations S1 and S2, one arrives at Papp = kp∙(r/3) = kobs/canalyte∙cFAR∙(r/3) (equation 1 in main text)
# Dye displacement membrane assay
# Dye displacement membrane assays rely on selective encapsulation of reporter pairs inside liposomes and the reversible interaction between the receptor and the translocated analyte. To conduct the assay, liposomes containing the chemosensing ensemble composed of a macrocyclic host and a dye are prepared and purified, such that a subsequently added analyte affects the dye fluorescence only if it can enter the vesicle and displaces the dye from the macrocycle. Until now, only the dye displacement has been used as the signaling mechanism for tandem membrane assays,3, 4 whereby the competitive displacement of the dye from such host•dye complexes upon analyte addition restores the fluorescence features of the dye in solution, Supplementary Figures 13 - 14.
# Specifically, this signaling mechanism has been mostly employed with macrocyclic host s with cavity space that is capable o f forming 1:1 complex es, e.g., cucurbit[7]uril (CB7) and the dyes berberine (BER) or palmatine (PAL), see Supplementary Figure 13a, or with p-sulfonato calix[4]arene (CX4) and lucigenin.3,4 Expanding the repertoire of chemosensors for tandem membrane assay s, we exploit herein also the ability of a larger macrocyclic host such as cucurbit[8]uril (CB8) to form 1:1:1 ternary complexes,5-7 and utilize here the quencher methyl viologen (MV) in combination with the fluorescent dyes 5-hydroxy tryptophan (5HO-Trp), 2-anilinonaphthalene -6-sulfonic acid (2,6-ANS) or dapoxyl sulfonic acid, sodium salt (DapoxS), Supplementary Figure 13b. Upon addition of an analyte, the fluorescent dye, the quencher or both the fluorescent dye and quencher are displaced from the CB8 cavity, which in each case is reflected by an increase in the emission intensity of the dye (switch -on displacement assay), Supplementary Figures 14- […]
# The dye displacement signal strategy has two important disadvantages compared to the preferred fluorescent artificial receptor (FAR) assays:
# (i) The dye displacement strategy is limited to strongly binding analytes, i.e., K(analyte) ≥ K(dye), otherwise a large excess concentration of analyte is needed to generate significant
# [4] = Aliquot analysis/flat lipid bilayer (macroscopic bilayer of brain phospholipids); cited from earlier work
# [5] = Fluorescence quenching; cited from earlier work
# [6] = PAMPA; cited from earlier work
# [7] = test system: Caco-2; settings: no passive permeation but active transport; cited from earlier work
# [8] = End-point analysis/EPC liposomes; cited from earlier work
# [9] = FARMA in DOPC:DOPS compared to POPC:POPS liposomes; type: in vitro ADME; settings: peer review file
# Text: good choice since they give different degrees of packing of lipids. If the authors further utilize the liposomes for testing membrane permeability of some of the compounds appeared in the manuscript using FARMAs composed of such different types of lipids, the results would be informative for understanding relationships between permeability of compounds and lipid structures.
# The FARMA method opens indeed a door for the systematic investigation of permeability in dependence on (i) different lipids, (ii) temperature, (iii) phase transitions, and (iv) additives. These studies are under way in our laboratories but we have now emphasized some key findings in regard to the transferability of the method:
# - Investigation of additives: We show in the manuscript that different lipid composition are in princi-ple possible by adding cholesterol to the POPC and POPS membrane (Fig S7), causing a noticeable alteration of the permeation kinetics of tryptamine as a model analyte.
# - Different lipid compositions: We have added a statement on page 10 (bottom) pointing to the possi-bility of preparing reporter-pair loaded liposomes with different lipid POPC:POPS compositions, ranging from 8:1 to 15:1 (our GUV preparations in the manuscript) to pure POPC (ref. 20 in the main […]
Structure (SMILES),membrane permeability (in words) [1],Ka [2],membrane permeability (in words) [3],Papp Literature [4],Papp Literature [5],Papp Literature [6],membrane permeability (in words) ([1]; listed as tryptophan),Papp Literature [7],Papp Literature [8] [×10⁻⁶ cm/s],"Papp at 16 µM ([1]; not told, pH 7) [×10⁻⁶ cm/s]","permeation rate, factor lower for DOPC:DOPS compared to POPC:POPS liposomes [9]"
"NCCc1c[nH]c2ccccc12 [Tryptamine, tryptamine]",slow permeation; also recorded: pass the membrane within several minutes to hours,50 10^3 M−1,slowly membrane permeable,6.7 10^−6 cm s^−1,0.33 10^−6 cm s^−1,5.4 10^−6 cm s^−1,,,,,
"N[C@@H](Cc1c[nH]c2ccccc12)C(=O)O [Trp, tryptophan]",no permeation,150 10^3 M−1,impermeable,,,,non-permeating,1.0 10^−6 cm s^−1,0.00041,,
"NCCc1c[nH]c2ccc(O)cc12 [Serotonin, serotonin]",pass the membrane within several minutes to hours,5 10^3 M−1,,1.1 10^−6 cm s^−1,,,,,,0.004,2-4
